Tests used:
Test in all cases: MIC, broth microdilution (CLSI), substance alone or ATB combined with compound at 4 or 8 μg/mL
[1] = system: ECO 190317; assay type: cell-based, E. coli; settings: ECO 190317
In short: (§1)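 Per CLSI-M7-A7, MICs are determined in cation-adjusted Mueller-Hinton broth with a final inoculum of 5·10^5 CFU/mL. Plates incubate 16-20 h at 35° C in air and are read by eye. Fosfomycin assays carry 25 μg/ml glucose-6-phosphate.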

[2] = system: ECL P99; assay type: cell-based, E. cloacae; settings: ECL P99
In short: as §1

[3] = system: KPN UFR42; assay type: cell-based, K. pneumoniae; settings: KPN UFR42
In short: as §1

[4] = system: KPN BAA-1898; assay type: cell-based, K. pneumoniae; settings: KPN BAA-1898
In short: as §1

[5] = system: KPN 6299; assay type: cell-based, K. pneumoniae
In short: as §1

[6] = system: SAU 29213; assay type: cell-based, S. aureus; settings: SAU 29213
In short: as §1

C[C@@H](O)[C@H]1C(=O)N2C(C(=O)O)=C(SCCN=CN)C[C@H]12 [IMI]
<=0.031 μg/mL: MIC ATB combined with Example 1 @8 μg/ml ([6]; with Example 1 @8 μg/ml) | MIC ATB combined with Example 1 @8 μg/ml ([6]; with Example 1 at 8 μg/ml) | MIC ATB combined with Example 13 @8 μg/ml ([6]; with Example 13 at 8 μg/ml)
32 µg/mL: MIC ATB alone ([3]; antibiotic alone) | MIC ATB combined with Example 9 @4 μg/ml ([3]; with Example 9 @4 μg/ml) | MIC ATB combined with Example 9 @4 μg/ml ([3]; with Example 9 at 4 μg/ml)
>32 µg/mL: MIC ATB combined with Example 1 @8 μg/ml ([3]; with Example 1 @8 μg/ml) | MIC ATB combined with Example 1 @8 μg/ml ([3]; with Example 1 at 8 μg/ml) | MIC ATB combined with Example 7 @8 μgml ([3]; with Example 7 at 8 μg/ml) | MIC ATB combined with Example 13 @8 μg/ml ([3]; with Example 13 at 8 μg/ml)
0.5 µg/mL: MIC ATB combined with Example 13 @8 μg/ml ([4]; with Example 13 at 8 μg/ml)
4 µg/mL: MIC ATB combined with Example 7 @8 μgml ([5]; with Example 7 at 8 μg/ml)
0.25 µg/mL: MIC ATB alone ([2]; antibiotic alone) | MIC ATB alone ([5]; antibiotic alone) | MIC ATB combined with Example 7 @8 μgml ([6]; with Example 7 at 8 μg/ml)
64 µg/mL: MIC ATB alone ([4]; antibiotic alone)
16 µg/mL: MIC ATB combined with Example 7 @8 μgml ([4]; with Example 7 at 8 μg/ml)
<0.031 µg/mL: MIC ATB combined with Example 11 @8 μg/ml ([1]; with Example 11 at 8 μg/ml) | MIC ATB combined with Example 12 @8 μg/ml ([1]; with Example 12 at 8 μg/ml) | MIC ATB combined with Example 13 @8 μg/ml ([1]; with Example 13 at 8 μg/ml) | MIC ATB combined with Example 14 @8 μg/ml ([1]; with Example 14 at 8 μg/ml) | MIC ATB combined with Example 15 @4 μgml ([1]; with Example 15 at 4 μg/ml) | MIC ATB combined with Example 16 @4 μg/ml ([1]; with Example 16 at 4 μg/ml) | MIC ATB combined with Example 1 @8 μg/ml ([2]; with Example 1 @8 μg/ml) | MIC ATB combined with Example 1 @8 μg/ml ([2]; with Example 1 at 8 μg/ml) | MIC ATB combined with Example 9 @4 μg/ml ([2]; with Example 9 @4 μg/ml) | MIC ATB combined with Example 9 @4 μg/ml ([2]; with Example 9 at 4 μg/ml) | MIC ATB combined with Example 11 @8 μg/ml ([2]; with Example 11 at 8 μg/ml) | MIC ATB combined with Example 12 @8 μg/ml ([2]; with Example 12 at 8 μg/ml) | MIC ATB combined with Example 14 @8 μg/ml ([2]; with Example 14 at 8 μg/ml) | MIC ATB combined with Example 15 @4 μgml ([2]; with Example 15 at 4 μg/ml) | MIC ATB combined with Example 16 @4 μg/ml ([2]; with Example 16 at 4 μg/ml) | MIC ATB combined with Example 11 @8 μg/ml ([3]; with Example 11 at 8 μg/ml) | MIC ATB combined with Example 12 @8 μg/ml ([3]; with Example 12 at 8 μg/ml) | MIC ATB combined with Example 14 @8 μg/ml ([3]; with Example 14 at 8 μg/ml) | MIC ATB combined with Example 15 @4 μgml ([3]; with Example 15 at 4 μg/ml) | MIC ATB combined with Example 16 @4 μg/ml ([3]; with Example 16 at 4 μg/ml) | MIC ATB combined with Example 9 @4 μg/ml ([4]; with Example 9 @4 μg/ml) | MIC ATB combined with Example 9 @4 μg/ml ([4]; with Example 9 at 4 μg/ml) | MIC ATB combined with Example 11 @8 μg/ml ([4]; with Example 11 at 8 μg/ml) | MIC ATB combined with Example 12 @8 μg/ml ([4]; with Example 12 at 8 μg/ml) | MIC ATB combined with Example 14 @8 μg/ml ([4]; with Example 14 at 8 μg/ml) | MIC ATB combined with Example 15 @4 μgml ([4]; with Example 15 at 4 μg/ml) | MIC ATB combined with Example 16 @4 μg/ml ([4]; with Example 16 at 4 μg/ml) | MIC ATB combined with Example 9 @4 μg/ml ([5]; with Example 9 @4 μg/ml) | MIC ATB combined with Example 9 @4 μg/ml ([5]; with Example 9 at 4 μg/ml) | MIC ATB combined with Example 11 @8 μg/ml ([5]; with Example 11 at 8 μg/ml) | MIC ATB combined with Example 12 @8 μg/ml ([5]; with Example 12 at 8 μg/ml) | MIC ATB combined with Example 14 @8 μg/ml ([5]; with Example 14 at 8 μg/ml) | MIC ATB combined with Example 15 @4 μgml ([5]; with Example 15 at 4 μg/ml) | MIC ATB combined with Example 16 @4 μg/ml ([5]; with Example 16 at 4 μg/ml) | MIC ATB combined with Example 9 @4 μg/ml ([6]; with Example 9 @4 μg/ml) | MIC ATB combined with Example 9 @4 μg/ml ([6]; with Example 9 at 4 μg/ml) | MIC ATB combined with Example 11 @8 μg/ml ([6]; with Example 11 at 8 μg/ml) | MIC ATB combined with Example 12 @8 μg/ml ([6]; with Example 12 at 8 μg/ml) | MIC ATB combined with Example 14 @8 μg/ml ([6]; with Example 14 at 8 μg/ml) | MIC ATB combined with Example 15 @4 μgml ([6]; with Example 15 at 4 μg/ml) | MIC ATB combined with Example 16 @4 μg/ml ([6]; with Example 16 at 4 μg/ml)
1 µg/mL: MIC ATB combined with Example 7 @8 μgml ([2]; with Example 7 at 8 μg/ml) | MIC ATB combined with Example 1 @8 μg/ml ([5]; with Example 1 @8 μg/ml) | MIC ATB combined with Example 1 @8 μg/ml ([5]; with Example 1 at 8 μg/ml) | MIC ATB combined with Example 13 @8 μg/ml ([5]; with Example 13 at 8 μg/ml)
2 µg/mL: MIC ATB combined with Example 1 @8 μg/ml ([4]; with Example 1 @8 μg/ml) | MIC ATB combined with Example 1 @8 μg/ml ([4]; with Example 1 at 8 μg/ml)
0.016 µg/mL: MIC ATB alone ([6]; antibiotic alone)
0.063 µg/mL: MIC ATB combined with Example 13 @8 μg/ml ([2]; with Example 13 at 8 μg/ml)

Source: patent US20200024278A1, “COMPOSITION COMPRISING ANTIBIOTIC COMPOUND AND AN HETEROCYCLIC COMPOUND AND THEIR USE IN PREVENTING OR TREATING BACTERIAL INFECTIONS” (MUTABILIS, priority 2016, published 2020)
